{"source": "patent US9814754B2", "about": "“Combinations with a backbone-cyclized peptide” (POLYPHOR AG, priority 2012, dated 2017)", "tested_on": "Pseudomonas aeruginosa clinical isolate PAX11045", "test": "Murine pneumonia model, compound 1 alone (Reference 1)", "format": "in vivo", "protocol": "Efficacy in Murine Pneumonia Model Against Pseudomonas aeruginosa PAX11045 and Estimation of ED50\nThe efficacy and ED50 of the compound of formula (I) (“compound 1”) was determined against Pseudomonas aeruginosa clinical isolate PAX11045 in a pneumonia model in mice. Colony counts in the lungs and spleen were determined at 20 hours post treatment.\nFresh overnight colonies of PAX11045 from a 5% Horse Blood Agar plate were suspended in 0.9% sterile saline to approximately 10^8 CFU/ml and further diluted to approximately 5×10^7 CFU/ml. Female mice (DBA/2, outbred, 18-22 g, Charles River) were anesthetized with 0.08 ml of Zoletil (tiletamine+zolazepam) and inoculated via the nose with a pipette with 0.05 ml of the bacteria suspension containing approximately 10^6 CFU. 4 hours after inoculation, the mice were treated orally with 45 μl neurophen (20 mg ibuprofen/ml corresponding to approximately 30 mg/kg) as pain relief.\nOne vial was further 2-fold diluted with saline to 2.25, 1.125, 0.56 and 0.28 mg/ml. The mice were treated subcutaneously with 0.2 ml in the neck region with a single dose at 4 hours post infection with a dose calculation based on a mean animal weight of 20 g.\nColony counts were determined post inoculation at 4 hours (untreated mice) and 24 hours (treated and vehicle-only treated mice). Immediately after the mice were sacrificed, the lungs and spleens were collected and frozen at −20° C. After thawing, the organs were homogenized in 1 ml 0.9% saline. Each sample was then 10-fold diluted in saline and 20 μl spots were applied on blood agar plates. All agar plates were incubated 18-48 hours at 35° C. in ambient air.", "key": {"[1]": {"settings": "compound 1 alone, s.c., murine lungs"}}, "note": "Square brackets hold non-standard residues; d marks the D form. dDab = NCC[C@@H](N)C(=O)O; Orn = NCCC[C@H](N)C(=O)O; Dab = NCC[C@H](N)C(=O)O"}
{"substance": "cyclo(TWI[Dab][Orn][dDab][Dab]W[Dab][Dab]AS[dP]P) [compound 1]", "values": [{"measurement": "Bottom level", "setting": "compound 1 alone, s.c. single dose 4 h post infection, murine lungs", "value": "−2.2", "unit": "log10 CFU/ml"}, {"measurement": "Top level", "setting": "compound 1 alone, s.c. single dose 4 h post infection, murine lungs, sigmoidal dose-response model", "value": 1.3, "unit": "log10 CFU/ml"}, {"measurement": "1 log killing dose", "setting": "[1]", "value": 8.1, "unit": "mg/kg"}, {"measurement": "2 log killing dose", "setting": "[1]", "value": 20, "unit": "mg/kg"}, {"measurement": "Emax", "setting": "[1]", "value": 3.5, "unit": "log10 CFU/ml"}, {"measurement": "Static dose", "setting": "[1]", "value": 1.55, "unit": "mg/kg"}, {"measurement": "ED50", "setting": "compound 1 alone, s.c., murine lungs, sigmoidal dose-response model (variable slope)", "value": 4.33, "unit": "mg/kg"}, {"measurement": "CFU levels compared to vehicle treatment", "setting": "compound 1 s.c. dose series, both organs (lungs and spleen), p<0.001 for the higher concentrations", "value": "concentration dependent significant reduction of the CFU levels"}]}
